The values below are quoted from earlier work in patent US20230102192A1, “THERAPIES FOR THE TREATMENT OF DISEASES AND DISORDERS ASSOCIATED WITH ABNORMAL EXPRESSION OF A NEURAL-ASSOCIATED GENE” (The Regents of the University of California, priority 2020, published 2023).

Like-named read-outs stand apart in the source and are kept apart here.

The conditions of data set [1]: cited from earlier work.
Data set [2] has as its target α7 subtype of neural nicotinic acetylcholine receptors (Homo sapiens, UniProt P36544). To be noted: cited from earlier work.
The conditions of data set [3]: in vivo, cited from earlier work.

Chain of α7 subtype of neural nicotinic acetylcholine receptors (P36544 23-502): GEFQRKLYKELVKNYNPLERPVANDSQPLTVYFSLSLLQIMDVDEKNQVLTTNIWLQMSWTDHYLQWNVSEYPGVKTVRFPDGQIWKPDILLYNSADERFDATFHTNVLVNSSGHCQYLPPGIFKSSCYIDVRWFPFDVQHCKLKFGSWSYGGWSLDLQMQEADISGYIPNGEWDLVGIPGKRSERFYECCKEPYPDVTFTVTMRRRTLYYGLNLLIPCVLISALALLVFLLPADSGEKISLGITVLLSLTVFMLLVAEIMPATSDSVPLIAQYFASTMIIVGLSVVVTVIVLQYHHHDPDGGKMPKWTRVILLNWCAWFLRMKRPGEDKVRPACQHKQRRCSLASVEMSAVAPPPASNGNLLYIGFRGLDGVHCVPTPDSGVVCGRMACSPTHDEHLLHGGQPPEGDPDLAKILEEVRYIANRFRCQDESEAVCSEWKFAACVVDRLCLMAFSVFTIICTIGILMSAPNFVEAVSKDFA

For `Cc1cccc(C)c1NC(=O)CN1CCCC1=O` [Nefiracetam, nefiracetam], the “toxicity during clinical trials” value in data set [1] (clinical trials) is “no evidence of toxicity”. Moreover, the “toxicity on long-term consumption” value in data set [1] (humans and primates) is given as “no toxicity”.

Turning to `O=C(N[C@H]1CN2CCC1CC2)c1cc2ccoc2cn1` [PHA 543613, N-[(3R)-1-azabicyclo[2.2.2]oct-3-yl]furo[2,3-c]pyridine-5-carboxamide], in data set [2], the “agonist activity at α7 nAChR” value was “potent and selective agonist”. For the same compound, in data set [3], the brain penetration entry is reported as “rapid brain penetration” and the oral bioavailability result is reported as “high oral bioavailability”. Also, in data set [3] (listed as PHA-543613), the brain penetration entry was “high level of brain penetration” and the oral bioavailability entry is recorded as “good oral bioavailability”.
